Test results taken from US9227957B2, “Pesticidal pyrimidine compounds” (Dow AgroSciences, LLC, priority 2012, dated 2016).

Key:
Conditions in all cases: 120 h, read-out: percent control or mortality rate
[1] = tested on: beet armyworm (Spodoptera exigua); test: 128 well diet tray insecticidal bioassay, beet armyworm
[2] = tested on: corn earworm (Helicoverpa zea); test: 128 well diet tray insecticidal bioassay, corn earworm
[3] = tested on: cabbage looper (Trichoplusia ni (Huebner)); test: 128 well diet tray insecticidal bioassay, cabbage looper

SMILES | mortality at 50 µg/cm2 [1] | mortality at 50 µg/cm2 [2] | mortality at 50 µg/cm2 [3]
O=C(Nc1nc(OCC(F)(F)F)cc(OCC(F)(F)F)n1)Nc1ccc(C(F)(F)F)s1 [Compound 1, 3-(4,6-bis(2,2,2-trifluoroethoxy)pyrimidin-2-yl)-1-(5-(trifluoromethyl)thiophen-2-yl)urea] | < 80% | 80 to 100% | –
CN(C(=O)Nc1nc(OCC(F)(F)F)cc(OCC(F)(F)F)n1)c1ccc(C(F)(F)F)s1 [Compound 2, 3-(4,6-bis(2,2,2-trifluoroethoxy)pyrimidin-2-yl)-1-methyl-1-(5-(trifluoromethyl)thiophen-2-yl)urea] | 80 to 100% | 80 to 100% | –
COCN(C(=O)Nc1ccc(C(F)(F)F)s1)c1nc(OCC(F)(F)F)cc(OCC(F)(F)F)n1 [Compound 4, 3-(methoxymethyl)-3-(4,6-bis(2,2,2-trifluoroethoxy)pyrimidin-2-yl)-1-(5-(trifluoromethyl)thiophen-2-yl)urea] | 80 to 100% | 80 to 100% | –
CC(=O)OCN(C(=O)Nc1ccc(C(F)(F)F)s1)c1nc(OCC(F)(F)F)cc(OCC(F)(F)F)n1 [Compound 5] | 80 to 100% | 80 to 100% | –
COCN(C(=O)N(C)c1ccc(C(F)(F)F)s1)c1nc(OCC(F)(F)F)cc(OCC(F)(F)F)n1 [Compound 7] | 80 to 100% | 80 to 100% | –
CC(=O)OCN(C(=O)N(C)c1ccc(C(F)(F)F)s1)c1nc(OCC(F)(F)F)cc(OCC(F)(F)F)n1 [Compound 8] | 80 to 100% | 80 to 100% | –
CN(C(=O)N(COCc1ccccc1)c1nc(OCC(F)(F)F)cc(OCC(F)(F)F)n1)c1ccc(C(F)(F)F)s1 [Compound 9] | 80 to 100% | 80 to 100% | –
COCN(C(=O)N(COCc1ccccc1)c1nc(OCC(F)(F)F)cc(OCC(F)(F)F)n1)c1ccc(C(F)(F)F)s1 [Compound 10, 3-(benzyloxymethyl)-3-(4,6-bis(2,2,2-trifluoroethoxy)pyrimidin-2-yl)-1-(methoxymethyl)-1-(5-(trifluoromethyl)thiophen-2-yl)urea] | 80 to 100% | 80 to 100% | –
O=C(Nc1nc(OCC(F)(F)F)c(F)c(OCC(F)(F)F)n1)Nc1ccc(C(F)(F)F)s1 [Compound 12] | 80 to 100% | 80 to 100% | –
CN(C(=O)Nc1nc(OCC(F)(F)F)c(F)c(OCC(F)(F)F)n1)c1ccc(C(F)(F)F)s1 [Compound 13] | 80 to 100% | 80 to 100% | –
COCN(C(=O)Nc1ccc(C(F)(F)F)s1)c1nc(OCC(F)(F)F)c(F)c(OCC(F)(F)F)n1 [Compound 15] | 80 to 100% | – | –
CC(=O)OCN(C(=O)N(C)c1ccc(C(F)(F)F)s1)c1nc(OCC(F)(F)F)c(F)c(OCC(F)(F)F)n1 [Compound 19] | 80 to 100% | 80 to 100% | –
COc1c(Cl)csc1NC(=O)Nc1nc(OCC(F)(F)F)cc(OCC(F)(F)F)n1 [Compound 25] | 80 to 100% | – | 80 to 100%
CN(C(=O)Nc1nc(OCC(F)(F)F)cc(OCC(F)(F)F)n1)c1cc(-c2ccc(Cl)cc2)cs1 [Compound 26] | 80 to 100% | – | 80 to 100%
CN(C(=O)Nc1nc(OCC(F)(F)F)cc(OCC(F)(F)F)n1)c1sccc1Cl [Compound 28] | < 80% | – | –
Cc1ccsc1N(C)C(=O)Nc1nc(OCC(F)(F)F)cc(OCC(F)(F)F)n1 [Compound 31] | – | – | < 80%
O=C(Nc1nc(OCC(F)(F)F)cc(OCC(F)(F)F)n1)Nc1sccc1Cl [Compound 32] | 80 to 100% | – | –
Cc1csc(N(C)C(=O)Nc2nc(OCC(F)(F)F)cc(OCC(F)(F)F)n2)c1 [Compound 34] | – | – | 80 to 100%
COc1c(Cl)csc1N(C)C(=O)Nc1nc(OCC(F)(F)F)cc(OCC(F)(F)F)n1 [Compound 35] | – | – | < 80%
COc1ccsc1N(C)C(=O)Nc1nc(OCC(F)(F)F)cc(OCC(F)(F)F)n1 [Compound 36] | – | – | < 80%
Cc1ccsc1NC(=O)Nc1nc(OCC(F)(F)F)cc(OCC(F)(F)F)n1 [Compound 37] | 80 to 100% | – | < 80%
CN(C(=O)Nc1nc(OCC(F)(F)F)cc(OCC(F)(F)F)n1)c1cc(C#N)cs1 [Compound 38] | – | – | 80 to 100%
Cc1ccc(N(C)C(=O)Nc2nc(OCC(F)(F)F)cc(OCC(F)(F)F)n2)s1 [Compound 39] | – | – | 80 to 100%
O=C(Nc1nc(OCC(F)(F)F)cc(OCC(F)(F)F)n1)Nc1sc(Cl)c(Cl)c1Cl [Compound 44] | 80 to 100% | – | 80 to 100%
O=C(Nc1nc(OCC(F)(F)F)cc(OCC(F)(F)F)n1)Nc1sccc1Br [Compound 45] | < 80% | – | –
